Reference: patent publication US20260115190A1, “DISPERSIONS OF ETRUMADENANT” (Arcus Biosciences, Inc., priority 2022, published 2026)

How the values were obtained:
[1] = molecular target: P-gp (Homo sapiens, UniProt P08183); settings: 200 mg QD itraconazole for 5 days; reported in the literature; cited from earlier work
[2] = Drug-drug interaction study with itraconazole; assay type: in vivo, humans; settings: with coadministration of itraconazole
Description: An open-label, fixed-sequence, 2-period drug-drug interaction (DDI) study was designed to evaluate the effect of multiple doses of a strong inhibitor of CYP3A4 and P-gp on the single-dose PK of etrumadenant in humans. Etrumadenant was supplied as 25 mg capsules. Itraconazole was used as the representative strong inhibitor of CYP3A4 and P-gp. It was supplied as 10 mg/mL oral solution, Sporanox® by Janssen Pharmaceuticals (or generic equivalent). Twenty (20) healthy, adult male and female (of non-childbearing potential) participants were enrolled. Screening of participants occurred within 28 days prior to the first dosing.
On Day 1 of Period 1, a single 150 mg dose of etrumadenant was orally administered under fasting conditions (i.e., at least 10 hours of fasting prior to dosing and at least 4 hours postdose). PK sampling for etrumadenant and its metabolites was taken predose and up to 120 hours postdose. There was a washout of 5 days between the etrumadenant dose in Period 1 and the first itraconazole dose in Period 2.
In Period 2, 200 mg itraconazole was orally administered twice a day (BID) on Day 1 and once a day (QD) for 9 consecutive days (on Days 2 through 10) with a single 150 mg dose of etrumadenant orally administered 1 hour after itraconazole dosing on Day 6. Itraconazole was administered under fasting conditions. On Day 6, participants fasted for at least 10 hours prior to and at least 4 hours post etrumadenant dosing. PK sampling for etrumadenant and its metabolites was taken predose and up to 120 hours after etrumadenant dosing. PK sampling for itraconazole and 1-hydroxy-itraconazole was collected on Days 5, 6, 7, 9, and 11.
Itraconazole was administered twice on the first day of Period 2 as a loading dose to accelerate CYP3A inhibition and the inhibition was then maintained by administering itraconazole 200 mg QD for 9 consecutive days. A 200 mg BID dose level is expected to provide similar inhibition to a 400 mg QD dose. Although itraconazole reaches steady state within approximately 15 days, it has been established that QD administration of 200 mg itraconazole for 3 to 5 days allows maximum CYP3A inhibition sufficient to detect a DDI. […] As such, administration of itraconazole for at least 4 days is considered sufficient in DDI studies as a CYP3A4 and P-gp inhibitor. To maintain the level of inhibition, itraconazole was administered throughout PK sampling of etrumadenant (i.e., through Day 10 of Period 2). In addition, the itraconazole oral solution was administered under fasting conditions to maximize bioavailability.
Participants were housed on Day −1 of Period 1, at the time indicated by the clinical research unit (CRU), until after the 120-hour blood draw and completion of study procedures in Period 2. Safety was monitored throughout the study by repeated clinical and laboratory evaluations. In this study, there were no discontinued participants. All participants who received at least one dose of study drug (including participants who terminated the study early) were asked to return to the CRU approximately 14 days after the last dose for follow-up procedures, and to determine if any adverse event (AE) had occurred since the last study visit. All adverse events reported in the study were mild and resolved without treatment.

Sequence of P-gp (P08183 whole entry): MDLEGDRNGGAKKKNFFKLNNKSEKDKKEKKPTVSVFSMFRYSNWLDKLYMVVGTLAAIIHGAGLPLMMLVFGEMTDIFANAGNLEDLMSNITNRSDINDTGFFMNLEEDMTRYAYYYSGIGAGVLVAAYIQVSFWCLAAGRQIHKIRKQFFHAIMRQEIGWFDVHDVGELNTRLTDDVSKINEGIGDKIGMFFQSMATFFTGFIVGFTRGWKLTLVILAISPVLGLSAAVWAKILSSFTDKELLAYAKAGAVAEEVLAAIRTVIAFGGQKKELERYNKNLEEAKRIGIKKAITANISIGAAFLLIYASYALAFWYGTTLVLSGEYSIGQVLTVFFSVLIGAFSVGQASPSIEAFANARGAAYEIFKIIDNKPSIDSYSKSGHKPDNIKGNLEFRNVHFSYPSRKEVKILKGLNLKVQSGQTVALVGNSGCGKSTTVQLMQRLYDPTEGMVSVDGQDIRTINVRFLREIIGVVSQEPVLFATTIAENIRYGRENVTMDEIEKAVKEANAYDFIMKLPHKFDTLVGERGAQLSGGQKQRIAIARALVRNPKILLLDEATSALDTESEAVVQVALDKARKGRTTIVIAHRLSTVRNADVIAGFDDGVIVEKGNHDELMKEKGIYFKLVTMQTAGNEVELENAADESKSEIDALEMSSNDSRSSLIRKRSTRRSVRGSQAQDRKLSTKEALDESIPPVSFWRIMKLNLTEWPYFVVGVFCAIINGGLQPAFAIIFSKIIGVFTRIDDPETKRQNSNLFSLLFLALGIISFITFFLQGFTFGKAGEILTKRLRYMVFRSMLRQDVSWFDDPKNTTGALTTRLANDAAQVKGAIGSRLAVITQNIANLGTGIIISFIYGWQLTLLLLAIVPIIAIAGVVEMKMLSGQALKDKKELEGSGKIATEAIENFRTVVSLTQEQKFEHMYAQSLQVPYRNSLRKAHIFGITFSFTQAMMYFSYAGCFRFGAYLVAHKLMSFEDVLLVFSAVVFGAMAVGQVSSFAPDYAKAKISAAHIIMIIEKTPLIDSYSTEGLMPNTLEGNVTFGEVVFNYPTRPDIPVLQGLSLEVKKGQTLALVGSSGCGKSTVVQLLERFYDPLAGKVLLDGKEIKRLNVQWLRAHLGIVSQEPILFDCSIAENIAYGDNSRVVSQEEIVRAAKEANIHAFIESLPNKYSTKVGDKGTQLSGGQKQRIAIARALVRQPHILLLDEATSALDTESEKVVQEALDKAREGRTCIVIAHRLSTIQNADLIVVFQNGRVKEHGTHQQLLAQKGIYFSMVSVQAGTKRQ

| decrease in metabolite-to-parent ratio MP AUC0-24 [2] | decrease in metabolite-to-parent ratio MP Cmax [2] [%] | SMILES | increase of oral digoxin AUC [1] |
| --- | --- | --- | --- |
| – | – | C[C@H]1O[C@@H](O[C@H]2[C@@H](O)C[C@H](O[C@H]3[C@@H](O)C[C@H](O[C@H]4CC[C@@]5(C)[C@H](CC[C@@H]6[C@@H]5C[C@@H](O)[C@]5(C)[C@@H](C7=CC(=O)OC7)CC[C@]65O)C4)O[C@@H]3C)O[C@@H]2C)C[C@H](O)[C@@H]1O [digoxin] | approximately 1.7 fold |
| approximately 87% | ~90 | Cc1c(C#N)cccc1-c1cc(-c2c[nH]nn2)nc(N)n1 [N-dealkylated etrumadenant] | – |
